How the values were obtained:
Assay type in all cases: in vivo, human
RA patients [1] = assay: ApoB level (Selectra autoanalyzer), Study 4; details: for ApoB level, 4 weeks CFB: 4 weeks change from baseline
Method: (§1) Randomized double-blind, placebo-controlled add on study in subjects with active RA who have an inadequate response to MTX monotherapy, in combination with methotrexate, administered for 4 weeks in the treatment of subjects with active rheumatoid arthritis who have an inadequate response to methotrexate alone.
(§2) Compound 1 (dosed as a [Compound 1:HCl:3H2O]) capsules administered orally in 30 mg, 75 mg, 150 mg, or 300 mg doses per day for 4 weeks.
ApoAI, and ApoB were measured on the Selectra autoanalyzer (Sopachem BV, 44-RI Straat 33, 4051 AP Ochten, The Netherlands). All assays were commercially available from DiaSys Diagnostic Systems GmbH, Alte Strasse 9, 65558 Holzheim, Germany.

[2] = system: Japanese and Caucasian healthy subjects; assay: [HDL] determination, Study 3 (healthy volunteers); details: 200 mg q.d.
Method: Randomized, double-blind, placebo-controlled study for the assessment of safety, tolerability, pharmacokinetics, and pharmacodynamics, of multiple oral doses of Compound 1 (dosed as a [Compound 1:HCl:3H2O]) in Japanese and Caucasian healthy subjects.
Randomized, double-blind, placebo-controlled, single center, sequential design study.
Compound 1 (dosed as a [Compound 1:HCl:3H2O]) is administered for 10 days as oral film-coated tablet (25 and 100 mg and matching placebos). Placebo are provided as a matching tablet.
The study drug is ingested with 240 mL water after a standardized breakfast on Days 2-9. On PK days (Day 1 and Day 10) the study drug is administered in a fasted state (subjects will receive lunch 4 h after dosing on Day 1 and Day 10).
10 Japanese subjects (6 active, 4 placebo) and 10 Caucasian subjects (6 active, 4 placebo) will receive once daily an oral dose of 200 mg Compound 1 (dosed as a [Compound 1:HCl:3H2O]) or matching placebo as two tablets of 100 mg or matching placebo for 10 days. For practical reasons, these subjects may be split over separate groups, each group consisting of an equal number of Japanese and Caucasian Compound 1 (dosed as a [Compound 1:HCl:3H2O]) treated subjects and Japanese and Caucasian placebo subjects.
This assay relies on a homogeneous enzymatic colorimetric test. In the presence of magnesium ions, dextran sulfate selectively forms water-soluble complexes with LDL, VLDL and chylomicrons which are resistant to PEG-modified enzymes.
The cholesterol concentration of [HDL]-cholesterol is determined enzymatically by cholesterol esterase and cholesterol oxidase coupled with PEG to the amino groups (approx. 40%).
In the presence of peroxidase, the hydrogen peroxide generated reacts with 4-amino-antipyrine and Sodium N-(2-hydroxy-3-sulfopropyl)-3,5-dimethoxyaniline (HSDA) to form a purple-blue dye. The color intensity of this dye is directly proportional to the cholesterol concentration and is measured photometrically.
Human serum and plasma samples [HDL] determination was done on a Roche/Hitachi Cobas c 701/702 system which automatically calculate the analyte concentration of each sample. Samples containing precipitates are centrifuged before performing the assay.

RA patients [3] = assay: Total cholesterol determination, Study 4 (4 weeks study in RA patients with inadequate response to methotrexate); details: for [Total cholesterol] levels: Study 4
Description: Randomized, double-blind, placebo-controlled, multicenter, phase II study of Compound 1 (dosed as a [Compound 1:HCl:3H2O]) to compare four dose regimens versus placebo, in combination with methotrexate, administered for 4 weeks in the treatment of subjects with active rheumatoid arthritis who have an inadequate response to methotrexate alone.
as §1
90 subjects randomized to one of 4 dose regimens of Compound 1 (dosed as a [Compound 1:HCl:3H2O]) or placebo, on top of their stable dose of MTX. Thus, each of the 4 different doses of Compound 1 (dosed as a [Compound 1:HCl:3H2O]) and placebo groups has 18 subjects.
as §2
This method is based on the determination of Δ^4 cholestenone after enzymatic cleavage of the cholesterol ester by cholesterol esterase, conversion of cholesterol by cholesterol oxidase, and subsequent measurement by the Trinder reaction of the hydrogen peroxide formed (Allain et al., 1974).
Cholesterol esters are cleaved by the action of cholesterol esterase to yield free cholesterol and fatty acids. Cholesterol oxidase then catalyzes the oxidation of cholesterol to cholest-4-en-3-one and hydrogen peroxide. In the presence of peroxidase, the hydrogen peroxide formed effects the oxidative coupling of phenol and 4-aminophenazone to form a red quinone-imine dye. The color intensity of the dye formed is directly proportional to the cholesterol concentration. It is determined by measuring the increase in absorbance.
Human serum and plasma samples cholesterol determination was done on a Roche/Hitachi Cobas c 701/702 system which automatically calculate the analyte concentration of each sample.

O=C(Nc1nc2cccc(-c3ccc(CN4CCS(=O)(=O)CC4)cc3)n2n1)C1CC1 [Compound 1, cyclopropanecarboxylic acid {5-[4-(1,1-dioxo-thiomorpholin-4-ylmethyl)-phenyl]-[1,2,4]triazolo[1,5-a]pyridin-2yl}-amide]
ApoB level, 4 weeks CFB (RA patients [1]; 30 mg q.d.): 19.5%
ApoB level, Baseline (RA patients [1]; 30 mg q.d.): 98.8 mg/dL
ApoB level, week 4 (RA patients [1]; 30 mg q.d.): 111 mg/dL
ApoB level, 4 weeks CFB (RA patients [1]; 75 mg q.d.): −1.1%
ApoB level, Baseline (RA patients [1]; 75 mg q.d.): 98.5 mg/dL
ApoB level, week 4 (RA patients [1]; 75 mg q.d.): 94.7 mg/dL
ApoB level, 4 weeks CFB (RA patients [1]; 150 mg q.d.): −1.8%
ApoB level, Baseline (RA patients [1]; 150 mg q.d.): 93.8 mg/dL
ApoB level, week 4 (RA patients [1]; 150 mg q.d.): 90.7 mg/dL
ApoB level, 4 weeks CFB (RA patients [1]; 300 mg q.d.): 6.8%
ApoB level, Baseline (RA patients [1]; 300 mg q.d.): 89.4 mg/dL
ApoB level, week 4 (RA patients [1]; 300 mg q.d.): 95.6 mg/dL
[HDL] % Mean % variation vs baseline 10 days ([2]; Caucasian): 6%
[HDL] levels ([2]; Caucasian, day 0): 1.5 mmol/L
[HDL] levels ([2]; Caucasian, day 5): 1.5 mmol/L
[HDL] levels ([2]; Caucasian, day 10): 1.6 mmol/L
[HDL] levels ([2]; Caucasian, day 17): 1.6 mmol/L
[HDL] % Mean % variation vs baseline 10 days ([2]; Japanese): 15.6%
[HDL] levels ([2]; Japanese, day 0): 1.3 mmol/L
[HDL] levels ([2]; Japanese, day 5): 1.3 mmol/L
[HDL] levels ([2]; Japanese, day 10): 1.5 mmol/L
[HDL] levels ([2]; Japanese, day 17): 1.4 mmol/L
[Total cholesterol] % Mean % variation vs baseline after 4 weeks (RA patients [3]; 30 mg qd): 6%
[Total cholesterol] % Mean % variation vs baseline after 4 weeks (RA patients [3]; 75 mg qd): 5%
[Total cholesterol] % Mean % variation vs baseline after 4 weeks (RA patients [3]; 150 mg qd): 3%
[Total cholesterol] % Mean % variation vs baseline after 4 weeks (RA patients [3]; 300 mg qd): 17%
[Total cholesterol] levels (RA patients [3]; 30 mg q.d., baseline): 5.19 mmol/L
[Total cholesterol] levels (RA patients [3]; 30 mg q.d., week 1): 5.31 mmol/L
[Total cholesterol] levels (RA patients [3]; 30 mg q.d., week 2): 5.25 mmol/L
[Total cholesterol] levels (RA patients [3]; 30 mg q.d., week 3): 5.32 mmol/L
[Total cholesterol] levels (RA patients [3]; 30 mg q.d., week 4): 5.50 mmol/L
[Total cholesterol] levels (RA patients [3]; 75 mg q.d., baseline): 4.99 mmol/L
[Total cholesterol] levels (RA patients [3]; 75 mg q.d., week 1): 5.04 mmol/L
[Total cholesterol] levels (RA patients [3]; 75 mg q.d., week 2): 5.07 mmol/L
[Total cholesterol] levels (RA patients [3]; 75 mg q.d., week 3): 5.08 mmol/L
[Total cholesterol] levels (RA patients [3]; 75 mg q.d., week 4): 5.18 mmol/L
[Total cholesterol] levels (RA patients [3]; 150 mg q.d., baseline): 4.77 mmol/L
[Total cholesterol] levels (RA patients [3]; 150 mg q.d., week 1): 4.94 mmol/L
[Total cholesterol] levels (RA patients [3]; 150 mg q.d., week 2): 4.85 mmol/L
[Total cholesterol] levels (RA patients [3]; 150 mg q.d., week 3): 4.89 mmol/L
[Total cholesterol] levels (RA patients [3]; 150 mg q.d., week 4): 4.96 mmol/L
[Total cholesterol] levels (RA patients [3]; 300 mg q.d., baseline): 4.56 mmol/L
[Total cholesterol] levels (RA patients [3]; 300 mg q.d., week 1): 5.13 mmol/L
[Total cholesterol] levels (RA patients [3]; 300 mg q.d., week 2): 5.21 mmol/L
[Total cholesterol] levels (RA patients [3]; 300 mg q.d., week 3): 5.23 mmol/L
[Total cholesterol] levels (RA patients [3]; 300 mg q.d., week 4): 5.33 mmol/L
